Test results published in paper PMC5131915, “Platinum(II) Iodido Complexes of 7-Azaindoles with Significant Antiproliferative Effects: An Old Story Revisited with Unexpected Outcomes” (PLoS ONE, 2016).

Assays:
[1] = test system: spleen, renal tissue and tumour tissues of L1210 leukaemia-bearing mice; experiment: Histological observations (light microscopy, semi-quantitative); details: relative scale 0 to 4
Excerpt: Randomly selected paraffin block preparations were stained by standard hematoxylin and eosin stain for light microscopic evaluation. Due to high cellularity, the semi-quantitative method was used for the evaluation of necrosis in well-circumcised and diffuse tumour samples and PMN cells infiltration in normal tissues as an indirect sign of toxicity to healthy tissues. The evaluation of necrotic processes and infiltration by PMN cells was semi-quantitative, based on the percentage of necrotic areas and/or infiltrated area in the view-field of at least three different samples.

A2780 cells = experiment: Cellular accumulation of platinum (ICP-MS); type: cell-based, human; details: 24 h treatment at IC50 concentration
Protocol: The A2780 cells were seeded in 6-well culture plates (1×10^6 cells per well) and incubated overnight (37°C and 5% CO2 in a humidified incubator). […] The cells were washed with PBS (2 × 2 mL) after 24 h treatment, harvested by trypsin treatment, collected and centrifuged in PBS. The supernatants were discarded after centrifugation and pellets were digested in 500 μL of nitric acid (3 min at 150°C) using a microwave system Monowave300 (Anton Paar). Solutions were diluted with 4.5 mL of water and the platinum content was determined by ICP-MS. The obtained values were corrected for adsorption effects. The experiments were conducted in triplicate and the results are presented as arithmetic mean±SD.

[2] = test system: A549 lung carcinoma cells; experiment: In vitro cytotoxicity testing (MTT assay), A549; type: cell-based, human; details: 24 h drug exposure, no recovery, read-out: IC50±SD, A549
Protocol: A2780 ovarian carcinoma, A2780R cisplatin-resistant ovarian carcinoma, HOS osteosarcoma, G361 malignant melanoma, MCF7 breast carcinoma, A549 lung carcinoma, HeLa cervix carcinoma, 22Rv1 prostate carcinoma and Caco-2 colorectal carcinoma human cancer cell lines were purchased from the European Collection of Cell Cultures (ECACC), while the human non-cancerous hepatocytes (Hep) were supplied by Biopredic Intl. The cell lines were cultured, according to the suppliers`instructions, in RPMI-1640 medium supplemented with 10% of fetal calf serum, 1% of 2 mM glutamine, and 1% penicillin/streptomycin. All cell lines were grown as adherent monolayers at 37°C and 5% CO2 in a humidified atmosphere.
The cells were seeded to 96-well culture plates, pre-incubated in drug-free media at 37°C for 24 h and treated typically with the 0.01–50.0 μM solutions, prepared from the stock solutions by dilution with medium, for 24 h at 37°C. […] In parallel with compounds 1–8 and the reference drugs, the cells were also treated with vehicle (0.1% DMF in medium; negative control) and Triton X-100 (1%; positive control) to assess the minimal and maximal cell damage, respectively. The MTT assay was used to determine the cell viability; MTT = 3-(4,5-dimethylthiazol-2-yl)-2,5-diphenyltetrazolium bromide. A concentration of the formed dye was evaluated spectrophotometrically at 540 nm (TECAN, Schoeller Instruments LLC).
The data were expressed as the percentage of viability, where 100% and 0% represents the treatments with negative and positive controls, respectively. The data from the cancer cells were acquired from three independent experiments (conducted in triplicate) using cells from different passages. The resulting IC50 values (μM) were calculated from viability curves and the results are presented as arithmetic mean±SD.

calf thymus DNA (ctDNA) = experiment: Fluorescence quenching experiments on the EtBr/ctDNA system; type: binding; details: for Stern-Volmer quenching constant KSV: TRIS/NaCl buffer pH 7.2; for apparent binding constant Kapp: estimated from Q50
Protocol: A volume of 405 μL of 154 μM ctDNA and 10 μL of 3 mM EtBr were mixed together in TRIS/NaCl buffer (pH = 7.2) and incubated for 30 min at ambient temperature. […] The mixtures were incubated at ambient temperature for next 15 min. The maxima of the emitted fluorescence of EtBr/ctDNA system have been observed at 613 nm (using the 546 nm excitation wavelength) and the intensity of fluorescence was recorded on a AvaSpec HS1024x122TE fluorescence spectrometer using a 1 cm quartz cell. […] Due to the indirect nature of the fluorescence quenching method, the value of KSV can be used for the estimation of the apparent binding constant Kapp of the complex by using the equation KEB [EtBr] = Kapp [Q50], where [Q50] is the concentration of the complex causing the 50% reduction in the intensity of fluorescence of the EtBr/DNA supramolecular complex, KEB = 1.0 × 10^6 M^−1 and [EtBr] = 10 μM [27].

MCL-1L (37 kDa) = experiment: Ex vivo Western blot of tumour tissues, MCL-1L; type: in vivo, mice; details: pooled tumour samples
Protocol: (§1) Frozen tumour samples were homogenized by a bench blender IKA DI25 (IKA-Werke, Germany) in the presence of a lysis buffer [cOmplete Protease Inhibitor Cocktail (Roche, Germany), 50 mM Tris-HCl pH 7.5, 1 mM EGTA, 1 mM EDTA, 1 mM sodium orthovanadate, 50 mM sodium fluoride, 5 mM sodium pyrophosphate, 270 mM sucrose, 0.5% (v/v) Triton X-100]. Subsequently, the blended samples were centrifuged at 9.000 g at 4°C for 15 min. The supernatants were collected and the protein concentration was measured by the Brandford’s method using the Brandford reagent (Amresco, USA) according to the manufacturer’s manual. The measured samples were stored at -80°C for the following experiments.
(§2) The expression of caspase 3, MCL-1, p53, and β-actin as loading control were evaluated by Western blot analysis and immunodetection. Lysates were mixed with a denaturing loading dye [250 mM Tris-HCl pH 6.8, 5% (v/v) β-mercaptoethanol, 10% (w/v) sodium dodecyl sulfate, 30% (v/v) glycerol, 0.04% (w/v) bromophenol blue], heated for 5 min at 70°C. To eliminate intra-species variability, and to obtain the same amount of proteins from all experimental groups, all samples from one group of animals were pooled together and loaded onto a 15% polyacrylamide denaturing gel. The final protein amount was 50 μg per well. After protein separation in the gel, they were transferred on the Immun-Blot polyvinylidene difluoride membrane 0.2 μm (Bio-Rad, USA). Then, the membrane was blocked by 5% (w/v) BSA in TBST [10 mM Tris-HCl pH 7.5, 150 mM NaCl, 0.1% (v/v) Tween-20]. […] HRP was detected by Clarity Western ECL Substrate (Bio-Rad, USA) using chemiluminescent documentation system Syngene PXi-4 (UK).

p53 = experiment: Ex vivo Western blot of tumour tissues, p53; type: in vivo, mice; details: pooled tumour samples
Protocol: as §1, §2

Row | Compound | Areas of necrosis in tumour tissues [1] | Infiltration of renal tissues (PMN cells) [1] | Infiltration of spleen (PMN cells) [1] | cellular accumulation (A2780 cells) [pmol Pt/10^6 A2780 cells] | IC50 [2] [µM] | Stern-Volmer quenching constant KSV (calf thymus DNA (ctDNA)) | apparent binding constant Kapp (calf thymus DNA (ctDNA)) | MCL-1L level in tumour tissue (MCL-1L (37 kDa)) | p53 level in tumour tissue (p53)
1 | N.N.[Cl][Pt][Cl] [Cisplatin, cisplatin, reference compound] | 3 (3 = up to 75%) | 1 (1 = up to 25%) | 1 (1 = up to 25%) | 535±16 | > 50 | 4.7 × 10^3 M^–1 | 4.8 × 10^4 M^–1 | – | –
2 | Brc1cc[n+]([Pt-2]([I])([I])[n+]2ccc(Br)c3cc[nH]c32)c2[nH]ccc12 [Complex 6, cis-[Pt(4Braza)2I2]] | 1–2 | 1 (1 = up to 25%) | 2 (2 = up to 50%) | 598±97 | 4.3 ± 0.9 | 7.4 × 10^3 M^–1 | 7.8 × 10^4 M^–1 | negligible effect | did not affect
3 | Cc1cc2c(Cl)cc[n+]([Pt-2]([I])([I])[n+]3ccc(Cl)c4cc(C)[nH]c43)c2[nH]1 [Complex 8, cis-[PtI2(2Me4Claza)2]] | 3 (3 = up to 75%) | 0–1 | 1–2 | – | 3.5 ± 0.2 | 1.4 × 10^4 M^–1 | 1.2 × 10^5 M^–1 | considerably increased | attenuated
